The values below come from ChEMBL document CHEMBL1154003, “Synthesis of boronic acid derivatives of tyropeptin: proteasome inhibitors” (Bioorg Med Chem Lett, 2009).

Activity calls are given as the source filed them. No cut-off for these calls is given here.

The nature of assay [1]: Inhibition of trypsin-like activity of human 20S proteasome.
Assay [2] in a line: Inhibition of chymotrypsin-like activity of human 20S proteasome.
Assay [3] in a line: Inhibition of peptidylglutamyl-peptide hydrolyzing activity of human 20S proteasome.
A further assay has as its system PC-3. As to the kind of experiment: Cytotoxicity against human PC3 cells. The class given is functional, cell-based.

As for `COc1ccc(C[C@H](NC(=O)Cc2cccc3ccccc23)C(=O)N[C@H](C(=O)N[C@@H](CC(C)C)B(O)O)C(C)C)cc1`, the IC50 (usually the midpoint of a concentration-inhibition curve) in assay [1] came out at 2800 nM; in assay [2] it was 2.6 nM; in assay [3] it was 940 nM.

On to `COc1ccc(C[C@H](NC(=O)[C@@H](NC(=O)[C@H](Cc2ccc(OC)cc2)NC(=O)Cc2cccc3ccccc23)C(C)C)B(O)O)cc1`, for which the figures for the IC50 in assay [1], in assay [2] and in assay [3] were 5600 nM, 6.3 nM and > 40000 nM, respectively.

`COc1ccc(CC(C=O)NC(=O)[C@@H](NC(=O)[C@H](Cc2ccc(OC)cc2)NC(=O)Cc2cccc3ccccc23)C(C)C)cc1` (stereo not given in full): the half-inhibitory concentration (IC50) in assay [1] was > 40000 nM; in assay [2], 83 nM; in assay [3] it was > 40000 nM. In addition, the inhibition result in the assay with PC-3 was “Active”.

`COc1ccc(C[C@H](N)C(=O)N[C@H](C(=O)N[C@@H](CC(C)C)B(O)O)C(C)C)cc1`: the concentration for half-maximal inhibition (IC50) is 1900 nM in assay [1], 21 nM in assay [2] and 1400 nM in assay [3].

With `COc1ccc(C[C@H](NC(=O)[C@@H](NC(=O)[C@@H](N)Cc2ccc(OC)cc2)C(C)C)B(O)O)cc1`, the results for the IC50 in assay [1], in assay [2] and in assay [3] were 3700 nM, 130 nM and 16000 nM, respectively.

With `COc1ccc(C[C@H](NC(=O)Cc2cccc3ccccc23)C(=O)N[C@H](C(=O)N[C@@H](Cc2ccccc2)B(O)O)C(C)C)cc1`, the values for the IC50 in assay [1], in assay [2] and in assay [3] were 4600 nM, 4.4 nM and 7400 nM, respectively.

Consider `CC(C)C[C@H](NC(=O)[C@H](Cc1ccccc1)NC(=O)c1cnccn1)B(O)O` [BORTEZOMIB], for which the IC50 was > 40000 nM in assay [1], 24 nM in assay [2] and 730 nM in assay [3].

With `COc1ccc(C[C@H](N)C(=O)N[C@H](C(=O)N[C@@H](Cc2ccccc2)B(O)O)C(C)C)cc1`, the values for the IC50 in assay [1], in assay [2] and in assay [3] were 4000 nM, 100 nM and 7700 nM, respectively.
